The structures appear in SMILES notation. Counter-ions that a name gives are not always drawn.

The results in this text go back to patent US20230150980A1, “COLLAGEN 1 TRANSLATION INHIBITORS AND METHODS OF USE THEREOF” (Anima Biotech Inc., priority 2020, published 2023).

In this assay the test system is collagen 1. Briefly: WI-38 collagen 1 inhibition assay (anti-Collagen I immunofluorescence).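 Further: minus sign means inactive.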 It counts as cell-based. Conditions: cellular EC50, WI-38 human lung fibroblasts, values are LogEC50 classes. As for the experimental part:
WI-38 cells (ATCC® CCL-75™) were maintained in MEM EAGLE (NEAA) W. GLUTAMIN (Biological Industries, Cat. 06-1040-15-1A) containing 10% fetal bovine serum (FBS) and 1% Penicillin-Streptomycin Solution. To synchronize the cells (cell cycle synchronization) prior to induction of collagen synthesis, the cells were starved using DMEM-low glucose supplemented with 0.25% FBS for two hours and then without FBS for 24 hours. To induce collagen synthesis, the cells were treated with a collagen induction cocktail for the indicated time. Compounds were added with induction.
Cells in 96-well or 384-well plates were fixed for 20 min in 4% paraformaldehyde (PFA, ENCO, Cat. sc-281692). Following two washes with 1×PBS, cells were treated with hydrogen peroxide (Acros, Cat: 7722-84-1) for 10 minutes and then washed twice with 1×PBS. Cells were then incubated over-night at 4° C. with Anti-Collagen I (Sigma-Aldrich, Cat: C 2456) antibody and washed three times with 1×PBS. Cell were then incubated with a suitable secondary fluorescently-tagged antibody and nuclei stained with DAPI, for 1 hour, and then washed 3 times with 1×PBS.
Cell images were taken with Operetta (Perkin Elmer, USA), a wide-field fluorescence microscope at 20× magnification. After acquisition, the images were transferred to Columbus software (Perkin-Elmer) for image analysis. In Columbus, cells were identified by their nucleus, using the “Find Nuceli” module and cytoplasm was detected based on the secondary antibody channel. Subsequently, the fluorescent signal was enumerated in the identified cell region. Data was exported to a data analysis and visualization software, Tibco Spotfire, USA.
For the compound `Cc1ncnc(N2CCN(Cc3nc4ccccc4o3)CC2)c1C` [compound 259, 2-[[4-(5,6-dimethylpyrimidin-4-yl)piperazin-1-yl]methyl]-1,3-benzoxazole], the “COL1 Efficacy (LogEC50)” value was “+++ (+++: <−6)”.
With `COCCOc1ccc2[nH]c(CN3CCN(c4ccncc4)CC3)cc2c1` [compound 260, 5-(2-methoxyethoxy)-2-[[4-(4-pyridyl)piperazin-1-yl]methyl]-1H-indole], the “COL1 Efficacy (LogEC50)” value is “++ (++: −5 to −6)”.
Regarding `COCCOc1ccc2c(c1)cc(CN1CCN(c3ccncc3)CC1)n2CCOC` [compound 261, 5-(2-methoxyethoxy)-1-(2-methoxyethyl)-2-((4-(pyridin-4-yl)piperazin-1-yl)methyl)-1H-indole], the “COL1 Efficacy (LogEC50)” value is on record as “−”.
Next, `c1cc(CN2CCN(c3ccncc3)CC2)c2[nH]ccc2c1` [compound 262, 7-[[4-(4-pyridyl)piperazin-1-yl]methyl]-1H-indole]: “−”; `c1cc(CN2CCN(c3ccncc3)CC2)c2cc[nH]c2c1` [compound 263, 4-[[4-(4-pyridyl)piperazin-1-yl]methyl]-1H-indole]: “−”.
Regarding `c1cc(N2CCN(Cc3ccc4[nH]ccc4c3)CC2)ccn1` [compound 264, 5-[[4-(4-pyridyl)piperazin-1-yl]methyl]-1H-indole], the “COL1 Efficacy (LogEC50)” value is “−”.
Take `c1cc(N2CCN(Cc3ccc4cc[nH]c4c3)CC2)ccn1` [compound 265, 6-[[4-(4-pyridyl)piperazin-1-yl]methyl]-1H-indole]: the “COL1 Efficacy (LogEC50)” value was “++ (++: −5 to −6)”.
`Cc1cncnc1N1CCN(Cc2cc3ccccc3[nH]2)CC1` [compound 266, 2-[[4-(5-methylpyrimidin-4-yl)piperazin-1-yl]methyl]-1H-indole formate]: the “COL1 Efficacy (LogEC50)” value is on record as “+ (+: >−5)”.
Consider `OC1(c2ccncc2)CCN(Cc2cc3ccccc3[nH]2)CC1` [compound 267, 1-(1H-indol-2-ylmethyl)-4-(4-pyridyl)piperidin-4-ol], for which the “COL1 Efficacy (LogEC50)” value was “−”.
Then `c1ccc2[nH]c(CN3CCC(Oc4ccncc4)CC3)cc2c1` [compound 268, 2-[[4-(4-pyridyloxy)-1-piperidyl]methyl]-1H-indole], with “++ (++: −5 to −6)”; and `c1ccc2[nH]c(CN3CCC(c4ccncc4)CC3)cc2c1` [compound 269, 2-[[4-(4-pyridyl)-1-piperidyl]methyl]-1H-indole], with “−”; and `c1cc(N2CCN(Cc3cc4ccncc4[nH]3)CC2)ccn1` [compound 270, 2-[[4-(4-pyridyl)piperazin-1-yl]methyl]-1H-pyrrolo[2,3-c]pyridine], with “−”.
Consider `c1ccc2[nH]c(CN3CC4(C3)CN(c3ccncc3)C4)cc2c1` [compound 271, 2-[[2-(4-pyridyl)-2,6-diazaspiro[3.3]heptan-6-yl]methyl]-1H-indole], for which the “COL1 Efficacy (LogEC50)” value was “−”.
On to `c1ccc2[nH]c(CN3CCC4(CCN(c5ccncc5)C4)C3)cc2c1` (centres unmarked) [compound 272, 7-(1H-indol-2-ylmethyl)-2-(4-pyridyl)-2,7-diazaspiro[4.4]nonane], for which the “COL1 Efficacy (LogEC50)” value was “−”.
Turning to `c1ccc2[nH]c(CN3CCCN(c4ccncc4)CC3)cc2c1` [compound 273, 2-[[4-(4-pyridyl)-1,4-diazepan-1-yl]methyl]-1H-indole], the “COL1 Efficacy (LogEC50)” value was “−”.
Consider `c1ccn2cc(CN3CCN(c4ccncc4)CC3)nc2c1` [compound 274, 2-[[4-(4-pyridyl)piperazin-1-yl]methyl]imidazo[1,2-a]pyridine], for which the “COL1 Efficacy (LogEC50)” value is “−”.
`c1cnc2[nH]c(CN3CCN(c4ccncc4)CC3)cc2c1` [compound 275, 2-[[4-(4-pyridyl)piperazin-1-yl]methyl]-1H-pyrrolo[2,3-b]pyridine]: the “COL1 Efficacy (LogEC50)” value is listed as “−”.
Take `C[C@@H]1CN(Cc2cc3ccccc3[nH]2)C[C@H](C)N1c1ccncc1` [compound 276, 2-[[(3S,5R)-3,5-dimethyl-4-(4-pyridyl)piperazin-1-yl]methyl]-1H-indole]: the “COL1 Efficacy (LogEC50)” value is given as “−”.
Consider `c1ccc2c(CN3CCN(c4ccncc4)CC3)c[nH]c2c1` [compound 277, 3-((4-(pyridin-4-yl)piperazin-1-yl)methyl)-1H-indole bis 2,2,2-trifluoroacetate], for which the “COL1 Efficacy (LogEC50)” value is reported as “−”.
As to `c1ccc2[nH]c(CN3CCN(c4cncnc4)CC3)cc2c1` [compound 278, 2-[(4-pyrimidin-5-ylpiperazin-1-yl)methyl]-1H-indole formate], the “COL1 Efficacy (LogEC50)” value is “−”.
`c1ccc2[nH]c(CN3CCN(c4ccnnc4)CC3)cc2c1` [compound 279, 2-[(4-pyridazin-4-ylpiperazin-1-yl)methyl]-1H-indole formate]: the “COL1 Efficacy (LogEC50)” value was “−”.
With `N#Cc1c(CN2CCN(c3ccncc3)CC2)[nH]c2ccccc12` [compound 280, 2-[[4-(4-pyridyl)piperazin-1-yl]methyl]-1H-indole-3-carbonitrile], the “COL1 Efficacy (LogEC50)” value is recorded as “−”.
`c1ccc2oc(CN3CCN(c4ccncn4)CC3)nc2c1` [compound 281, 2-[(4-pyrimidin-4-ylpiperazin-1-yl)methyl]-1,3-benzoxazole hemiformate]: the “COL1 Efficacy (LogEC50)” value was “+ (+: >−5)”.
Regarding `c1ccc2oc(CN3CCN(c4ccncc4)CC3)nc2c1` [compound 282, 2-[[4-(4-pyridyl)piperazin-1-yl]methyl]-1,3-benzoxazole formate], the “COL1 Efficacy (LogEC50)” value is “+ (+: >−5)”.
Then `c1ccn2nc(CN3CCN(c4ccncc4)CC3)cc2c1` [compound 283, 2-((4-(pyridin-4-yl)piperazin-1-yl)methyl)pyrazolo[1,5-a]pyridine 2,2,2-trifluoroacetate], with “−”.
For the compound `c1cnc2cc(CN3CCN(c4ccncc4)CC3)[nH]c2c1` [compound 284, 2-[[4-(4-pyridyl)piperazin-1-yl]methyl]-1H-pyrrolo[3,2-b]pyridine], the “COL1 Efficacy (LogEC50)” value is listed as “−”.
Regarding `c1ccc2[nH]c(CN3C[C@@H]4CN(c5ccncc5)C[C@@H]4C3)cc2c1` [compound 285, 2-[[(3aS,6aR)-5-(4-pyridyl)-1,3,3a,4,6,6a-hexahydropyrrolo[3,4-c]pyrrol-2-yl]methyl]-1H-indole], the “COL1 Efficacy (LogEC50)” value is listed as “−”.
In the case of `COCCOCc1cncnc1N1CCN(Cc2cc3ccccc3[nH]2)CC1` [compound 287, 2-((4-(5-((2-methoxyethoxy)methyl)pyrimidin-4-yl)piperazin-1-yl)methyl)-1H-indole], the “COL1 Efficacy (LogEC50)” value is given as “−”.
Consider `Cn1cc(N2CCN(Cc3cc4ccccc4[nH]3)CC2)nn1` [compound 288, 2-((4-(1-methyl-1H-1,2,3-triazol-4-yl)piperazin-1-yl)methyl)-1H-indole], for which the “COL1 Efficacy (LogEC50)” value is on record as “++ (++: −5 to −6)”.
As for `CCc1cncnc1N1CCN(Cc2nc3ccc(COCCOC)cc3[nH]2)CC1` [compound 289, 2-((4-(5-ethylpyrimidin-4-yl)piperazin-1-yl)methyl)-6-((2-methoxyethoxy)methyl)-1H-benzo[d]imidazole], the “COL1 Efficacy (LogEC50)” value was “+++ (+++: <−6)”.
As to `CCc1cncnc1N1CCN(Cc2nc3ccc(OCCOC)cc3[nH]2)CC1` [compound 290, 2-((4-(5-ethylpyrimidin-4-yl)piperazin-1-yl)methyl)-6-(2-methoxyethoxy)-1H-benzo[d]imidazole], the “COL1 Efficacy (LogEC50)” value is on record as “++ (++: −5 to −6)”.
Turning to `CCc1cncnc1N1CCN(Cc2cc3ccc(COCCOC)cc3[nH]2)CC1` [compound 291, 2-((4-(5-ethylpyrimidin-4-yl)piperazin-1-yl)methyl)-6-((2-methoxyethoxy)methyl)-1H-indole], the “COL1 Efficacy (LogEC50)” value was “+++ (+++: <−6)”.
For `CCc1cncnc1N1CCN(Cc2cc3ccc(OCCOC)cc3[nH]2)CC1` [compound 292, 2-((4-(5-ethylpyrimidin-4-yl)piperazin-1-yl)methyl)-6-(2-methoxyethoxy)-1H-indole], the “COL1 Efficacy (LogEC50)” value is listed as “++ (++: −5 to −6)”.
Regarding `Cc1ncnc(N2CCN(Cc3nc4c(F)cccc4o3)CC2)c1C` [compound 293, 2-((4-(5,6-dimethylpyrimidin-4-yl)piperazin-1-yl)methyl)-4-fluorobenzo[d]oxazole], the “COL1 Efficacy (LogEC50)” value is on record as “++ (++: −5 to −6)”.
Next, `Cc1ncnc(N2CCN(Cc3nc4c(C(F)(F)F)cccc4o3)CC2)c1C` [compound 295, 2-((4-(5,6-dimethylpyrimidin-4-yl)piperazin-1-yl)methyl)-4-(trifluoromethyl)benzo[d]oxazole]: “+++ (+++: <−6)”; `Cc1ncnc(N2CCN(Cc3nc4cc(F)ccc4o3)CC2)c1C` [compound 297, 2-((4-(5,6-dimethylpyrimidin-4-yl)piperazin-1-yl)methyl)-5-fluorobenzo[d]oxazole]: “++ (++: −5 to −6)”; `Cc1ncnc(N2CCN(Cc3nc4cc(C(F)(F)F)ccc4o3)CC2)c1C` [compound 299, 2-((4-(5,6-dimethylpyrimidin-4-yl)piperazin-1-yl)methyl)-5-(trifluoromethyl)benzo[d]oxazole]: “+++ (+++: <−6)”.
As for `Cc1ncnc(N2CCN(Cc3nc4ccc(F)cc4o3)CC2)c1C` [compound 301, 2-((4-(5,6-dimethylpyrimidin-4-yl)piperazin-1-yl)methyl)-6-fluorobenzo[d]oxazole], the “COL1 Efficacy (LogEC50)” value is recorded as “+++ (+++: <−6)”.
